Assay results as given in patent US11753395B2 (Kinnate Biopharma Inc., priority 2021, dated 2023).

Experiments:
[1] = target: T1, Ba/F3-TPR-MET-D1228N cells (Homo sapiens, UniProt P08581, D1228N, cells depend on it); assay: CellTiter-Glo Cell Viability Assay, Ba/F3-TPR-MET-D1228N; type: cell-based; conditions: 72 hours
T1 construct: fused on or other part: P12270 (Nucleoprotein TPR)
Summary of the method: (§1)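 Ba/F3 cells carrying TPR-MET or TPR-MET-D1228N, 3000 per well, were exposed for 72 h at 37 °C to 9-point 3-fold compound dilutions at 0.1% DMSO. Viability was read as ATP by CellTiter-Glo 2.0 luminescence, and IC50 values came from curve fitting.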

MET D1228N = target: T2, MET D1228N (Homo sapiens, UniProt P08581, D1228N); assay: MET D1228N Mobility Shift Assay; conditions: biochemical assay IC50; 100 μM ATP, 60 minute kinase reaction
T2 construct: purchased Signalchem M52-12IG
Summary of the method: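 Enzyme at 0.313 nM preincubated 30 min at room temperature with 1.5 μM FAM-labelled peptide and 10 mM MgCl2 in HEPES buffer with DTT; reaction started with 100 μM ATP, run 60 min, stopped with EDTA. Substrate/product separated by microfluidic mobility shift; IC50 from inhibition of % conversion.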

Ba/F3-TPR-MET cells = target: T3, Ba/F3-TPR-MET cells (Homo sapiens, UniProt P08581); assay: CellTiter-Glo Cell Viability Assay, Ba/F3-TPR-MET; type: cell-based; conditions: 72 hours
T3 construct: fused on or other part: P12270 (Nucleoprotein TPR)
Summary of the method: as §1

MET = target: T4, MET (Homo sapiens, UniProt P08581); assay: MET Mobility Shift Assay; conditions: biochemical assay IC50; 100 μM ATP, 60 minute kinase reaction
T4 construct: purchased Carna Biosciences 08-151
Summary of the method: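 Recombinant MET at 0.625 nM was pre-incubated 30 min at room temperature with 1.5 μM FLPeptide30 and 10 mM MgCl2 in HEPES buffer with DTT. The reaction was started with 100 μM ATP, ran 60 min, and was stopped with EDTA. Microfluidic mobility-shift % conversion gave IC50.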

Molecule | EC50 [1] [nM] | IC50 (MET D1228N) [nM] | EC50 (Ba/F3-TPR-MET cells) [nM] | IC50 (MET) [nM]
COc1ccncc1C(=O)Nc1cc(F)c(Oc2ccnc3ccc(O[C@@H](C)CO)cc23)c(F)c1 [Example 130, (S)-N-(3,5-difluoro-4-((6-((1-hydroxypropan-2-yl)oxy)quinolin-4-yl)oxy)phenyl) -4-methoxynicotinamide] | ≤ 100 | ≤ 100 | 100 to 1000 | ≤ 100
COc1cc2nccc(Oc3c(F)cc(NC(=O)c4cnccc4OC)cc3F)c2cc1O[C@H](C)CO [Example 131, (R)-N-(3,5-difluoro-4-{[6-((1-hydroxypropan-2-yl)oxy)-7-methoxyquinolin-4-yl]oxy}phenyl)-4-methoxypyridine-3-carboxamide] | ≤ 100 | ≤ 100 | ≤ 100 | ≤ 100
COc1cc2nccc(Oc3c(F)cc(NC(=O)c4cnccc4OC)cc3F)c2cc1OC1(CO)CC1 [Example 132, N-(3,5-difluoro-4-((6-(1-(hydroxymethyl)cyclopropoxy)-7-methoxyquinolin-4-yl)oxy)phenyl)-4-methoxynicotinamide] | ≤ 100 | ≤ 100 | ≤ 100 | ≤ 100
COc1cc2nccc(Oc3c(F)cc(NC(=O)c4cnccc4OC)c(F)c3F)c2cc1O[C@@H](C)CO [Example 133, (S)-4-methoxy-N-(2,3,5-trifluoro-4-((6-((1-hydroxypropan-2-yl)oxy)-7-methoxyquinolin-4-yl)oxy)phenyl)nicotinamide] | ≤ 100 | ≤ 100 | ≤ 100 | ≤ 100
COc1cc2c(Oc3c(F)cc(NC(=O)c4ccccc4F)cc3F)ccnc2cc1OCCO [Example 134, N-(3,5-difluoro-4-((7-(2-hydroxyethoxy)-6-methoxyquinolin-4-yl)oxy)phenyl)-2-fluorobenzamide] | ≤ 100 | ≤ 100 | ≤ 100 | ≤ 100
COc1cc2c(Oc3c(F)cc(NC(=O)c4cnccc4OCC(F)F)cc3F)ccnc2cc1OCCO [Example 135, N-(3,5-difluoro-4-((7-(2-hydroxyethoxy)-6-methoxyquinolin-4-yl)oxy)phenyl)-4-(2,2-difluoroethoxy)pyridine-3-carboxamide] | ≤ 100 | ≤ 100 | ≤ 100 | ≤ 100
COCCOc1cc2nccc(Oc3c(F)cc(NC(=O)c4cnccc4OC4CC4)cc3F)c2nc1OC [Example 136, 4-cyclopropoxy-N-(3,5-difluoro-4-{[6-methoxy-7-(2-methoxyethoxy)-1,5-naphthyridin-4-yl]oxy}phenyl)pyridine-3-carboxamide] | ≤ 100 | ≤ 100 | ≤ 100 | ≤ 100
COCCOc1cc2nccc(Oc3c(F)cc(NC(=O)c4cnccc4OC)cc3F)c2nc1OC [Example 137, N-(3,5-difluoro-4-((6-methoxy-7-(2-methoxyethoxy)-1,5-naphthyridin-4-yl)oxy)phenyl)-4-methoxypyridine-3-carboxamide] | ≤ 100 | ≤ 100 | ≤ 100 | ≤ 100
COc1ccncc1C(=O)Nc1cc(F)c(Oc2ccnc3cc(OCCO)c(OC)nc23)c(F)c1 [Example 138, N-(3,5-difluoro-4-((7-(2-hydroxyethoxy)-6-methoxy-1,5-naphthyridin-4-yl)oxy)phenyl)-4-methoxypyridine-3-carboxamide] | ≤ 100 | ≤ 100 | ≤ 100 | ≤ 100
COCCOc1cnc2c(Oc3c(F)cc(NC(=O)c4cnccc4OC)cc3F)ccnc2c1 [Example 139, N-(3,5-difluoro-4-((7-(2-methoxyethoxy)-1,5-naphthyridin-4-yl)oxy)phenyl)-4-methoxypyridine-3-carboxamide] | ≤ 100 | ≤ 100 | ≤ 100 | ≤ 100
COCCOc1cnc2c(Oc3c(F)cc(NC(=O)c4ccccc4F)cc3F)ccnc2c1 [Example 140, N-(3,5-difluoro-4-((7-(2-methoxyethoxy)-1,5-naphthyridin-4-yl)oxy)phenyl)-2-fluorobenzamide] | ≤ 100 | ≤ 100 | ≤ 100 | ≤ 100
COc1cc2c(Oc3c(F)cc(NC(=O)c4c(OCC(F)F)ccnc4F)cc3F)ccnc2cc1OCCO [Example 141, N-(3,5-difluoro-4-((7-(2-hydroxyethoxy)-6-methoxyquinolin-4-yl)oxy)phenyl)-4-(2,2-difluoroethoxy)-2-fluoropyridine-3-carboxamide] | ≤ 100 | ≤ 100 | ≤ 100 | ≤ 100
COc1cc2nccc(Oc3c(F)cc(NC(=O)c4c(OCC(F)F)ccnc4F)cc3F)c2cc1OCCO [Example 142, N-(3,5-difluoro-4-((6-(2-hydroxyethoxy)-7-methoxyquinolin-4-yl)oxy)phenyl)-4-(2,2-difluoroethoxy)-2-fluoropyridine-3-carboxamide] | ≤ 100 | ≤ 100 | ≤ 100 | ≤ 100
COc1cc2nccc(Oc3c(F)cc(NC(=O)c4cnccc4OCC(F)F)cc3F)c2cc1OCCO [Example 143, N-(3,5-difluoro-4-((6-(2-hydroxyethoxy)-7-methoxyquinolin-4-yl)oxy)phenyl)-4-(2,2-difluoroethoxy)pyridine-3-carboxamide] | ≤ 100 | ≤ 100 | ≤ 100 | ≤ 100
COc1cc2nccc(Oc3c(F)cc(NC(=O)c4c(OC5CC5)ccnc4F)cc3F)c2nc1OC [Example 144, 4-cyclopropoxy-N-(4-((6,7-dimethoxy-1,5-naphthyridin-4-yl)oxy)-3,5-difluorophenyl)-2-fluoropyridine-3-carboxamide] | ≤ 100 | ≤ 100 | ≤ 100 | ≤ 100
COc1ccncc1C(=O)Nc1cc(F)c(Oc2ccnc3cc(OC)c(O[C@@H](C)CO)nc23)c(F)c1 [Example 145, (S)-N-(3,5-difluoro-4-((6-((1-hydroxypropan-2-yl)oxy)-7-methoxy-1,5-naphthyridin-4-yl)oxy)phenyl)-4-methoxynicotinamide] | ≤ 100 | ≤ 100 | ≤ 100 | ≤ 100
COC[C@H](C)Oc1nc2c(Oc3c(F)cc(NC(=O)c4cnccc4OC)cc3F)ccnc2cc1OC [Example 146, (S)-N-(3,5-difluoro-4-((7-methoxy-6-((1-methoxypropan-2-yl)oxy)-1,5-naphthyridin-4-yl)oxy)phenyl)-4-methoxynicotinamide] | ≤ 100 | ≤ 100 | ≤ 100 | ≤ 100
COc1ccncc1C(=O)Nc1cc(F)c(Oc2ccnc3cc(OC)c(OC4(CO)CC4)nc23)c(F)c1 [Example 147, N-(3,5-difluoro-4-((6-(1-(hydroxymethyl)cyclopropoxy)-7-methoxy-1,5-naphthyridin-4-yl)oxy)phenyl)-4-methoxynicotinamide] | ≤ 100 | ≤ 100 | ≤ 100 | ≤ 100
COc1cc2c(Oc3c(F)cc(NC(=O)c4nnccc4OC4CC4)cc3F)ccnc2cc1OCCO [Example 148, 4-cyclopropoxy-N-(3,5-difluoro-4-((7-(2-hydroxyethoxy)-6-methoxyquinolin-4-yl)oxy)phenyl)pyridazine-3-carboxamide] | ≤ 100 | ≤ 100 | ≤ 100 | ≤ 100
COc1cc2nccc(Oc3c(F)cc(NC(=O)c4nnccc4OC4CC4)cc3F)c2cc1OC [Example 149, 4-cyclopropoxy-N-(4-((6,7-dimethoxyquinolin-4-yl)oxy)-3,5-difluorophenyl)pyridazine-3-carboxamide] | ≤ 100 | ≤ 100 | 100 to 1000 | ≤ 100
(R)-N-(4-((7-(2-aminopropoxy)quinolin-4-yl)oxy)-3,5-difluorophenyl)-4-cyclopropoxypyridine-3-carboxamide [Example 13] | ≤ 100 | ≤ 100 | 100 to 1000 | ≤ 100
(S)-N-(4-((7-(2-aminopropoxy)quinolin-4-yl)oxy)-3,5-difluorophenyl)-4-cyclopropoxypyridine-3-carboxamide [Example 12] | ≤ 100 | ≤ 100 | ≤ 100 | ≤ 100
